This note sets out measurements from patent publication US8709392B2, “Cosmetic/dermatological compositions comprising naphthoic acid compounds and polyurethane polymers” (Galderma Research & Development, priority 2005, dated 2014).

Data set [1] concerns skin of the back of RHINO FVB/N RJ-hr^rh mice (Rhino). Put plainly: Study of the comedolytic activity on Rhino mice. Type of data set: in vivo, mouse. Particulars: for Change in weight of the Rhino mice (%) D19-D1, Mean: 50 μl topical daily for 18 days; for increase in transepidermal water loss (TWL), AUC: Rhino mice, after 18 days of topical treatment. On the procedure:
The present study is aimed at evaluating the comedolytic activity of the reference gel containing 0.1% adapalene and of two 0.1% adapalene formulations in gel form with a polyurethane polymer at different concentrations, and also their placebos, on the skin of the back of RHINO FVB/N RJ-hr^rh mice (Rhino) after repeated topical applications for 18 days.
The daily topical application (50 μl) of the test products is performed on the skin of the back of Rhino mice divided into seven groups (approximately 7-week-old mice) at a rate of one application per day for 18 days. The test products are:
The tolerance evaluation is made by clinical observation of the dorsal epidermis with the following observation parameters: oedema, erythema and squamae 3 times a week for 19 days.
The comedolytic activity is evaluated by measuring the transepidermal water loss (TWL) on days D4, D11 and D19, by measuring the thickness of the epidermis, by counting the number of comedones/cm and by weighing the animals on days D1, D4, D11 and D19.
The TWL quantifies the impairment in the skin barrier by measuring the gradient of water vapor that is established in a layer 10 mm thick above the surface of the skin.

The subject of data set [2] is skin of the ear of the BALB/c mouse. Put plainly: Tolerance study in BALB/c mice (ear thickness after repeated topical applications). It is filed as in vivo. On the procedure:
The present study is for comparing the irritant power of a reference gel containing 0.1% adapalene with that of three 0.1% adapalene formulations in gel form containing a polyurethane polymer at various concentrations, and also placebos thereof, on the skin of the ear of the BALB/c mouse after repeated topical applications for 6 days.
The daily topical application (20 μl) of the test products is performed on the inner face of the ear of BALB/c mice divided into ten groups (female mice about 8 weeks old) at a rate of one application per day for 6 days. The test products are:
The evaluation is performed by measuring the thickness of the ear by means of the Oditest and by clinical observation of the animals from the 2nd to the 19th day.

Take `CC1(C)CCC(C)(C)c2cc(-c3cc4ccc(C(=O)O)cc4s3)ccc21` [2-(5,5,8,8-tetramethyl-5,6,7,8-tetrahydronaphthalen-2-yl)benzo[b]thiophene-6-carboxylic acid]: in data set [1], the “Change in weight of the Rhino mice (%) D19-D1, Mean” value was 10.4% and the “increase in transepidermal water loss (TWL), AUC” value is 332%.
As for `COc1ccc(-c2ccc3cc(C(=O)O)ccc3c2)cc1C12CC3CC(CC(C3)C1)C2` [acetone+0.1% (m/m) adapalene, 6-[3-(1-adamantyl)-4-methoxyphenyl]-2-naphthoic acid], the “irritant power” value in data set [2] (BALB/c mouse ear thickness kinetics D2-D19) is “also irritant”. For the same molecule, the “Increase in AUC versus placebo (%)” value in data set [2] (ear thickness AUC D2-D19, BALB/c mouse, relative to own placebo) was 30%. Moreover, in data set [1], the “Change in weight of the Rhino mice (%) D19-D1, Mean” value stood at 9.2% and the “increase in transepidermal water loss (TWL), AUC” value is recorded as 299%.
